Measurements: US7531355B2, “Methods and compositions for smooth muscle reconstruction” (The Regents of the University of California, priority 2005, dated 2009)

Experiments:
[1] = tested on: fibroblasts (NIH 3T3); assay: Smooth muscle contraction in vitro assay (collagen gel), control cells; format: cell-based, Murine; conditions: control cells NIH 3T3
Procedure: (§1) A mixture of 50% collagen solution (Vitrogen), 25% 4×DMEM with supplemented sodium bicarbonate prepared from powder (Gibco), ˜5 μl volume of glass bead (120-150 μm soda lime microspheres in light blue color) were added to approximately 5×10^5 cells (smooth muscle cells differentiated from ADSCs, although other cell types were utilized as negative controls) to a total volume of 400 μl was prepared on ice. The slurry was transferred to a 24-well plate (with calculated resulting thickness of around 2 mm) and the gel was allowed to polymerize in the 37° C. incubator overnight. Appropriate cell culture medium was added the next day to supplement cell growth, e,.g., smooth muscle medium was added to smooth muscle cells or adipogenic medium was added to adipose cells. The gel was incubated again for another night.
(§2) The following day (2 days after casting the gel) the gel was partially released (i.e., about 280° around the circumference of the well) from the tissue culture well by gently pulling the gel away from the side of the well with a pipette. Carbachol (an acetylcholine agonist) was added to the partially released gel. Response to addition of the drug was monitored by use of a microscope connected to a real-time camera.
(§3) Murine NIH 3T3 (fibroblasts ) or undifferentiated PLA cells were run concurrently as controls.
(§4) Pictures were taken before the gel was released at marked fields. […]

[2] = tested on: undifferentiated PLA; assay: as above; format: cell-based
Procedure: as §1, §2, §3, §4

[3] = tested on: smooth muscle cells differentiated from ADSCs; assay: Smooth muscle contraction in vitro assay (collagen gel); format: cell-based
Procedure: as §1, §2
Pictures were taken before the gel was released at marked fields. The gel was released with a pipette tip about 280° around the wall of the well. […]

Structure (SMILES)	contractile response of gel to the agent [1]	contractile response of gel to the agent [2]	contractile response of gel to the agent ([3]; agent added to partially released gel)	effect on contractile response to isoproterenol ([3]; added beforehand)
C[N+](C)(C)CCOC(N)=O [Carbachol]	very weak response	very weak response		
CNC[C@H](O)c1cccc(O)c1 [Phenylephrine]			shown to contract gels	
CC(C)NCC(O)COc1cccc2ccccc12 (stereo not drawn) [Propranolol]				reduced the contractile response
CC(C)NCC(O)c1ccc(O)c(O)c1 (stereo not drawn) [isoproterenol]	no response	no response		
